The values below come from patent publication US5019584A, “Therapeutically active chloro substituted benzimidazole” (priority 1988, dated 1991).

Where two headings read alike, the source gives them in different places.

In data set [1] the test system is gastric acid secretion (stimulated with histamine dihydrochloride). In words: Inhibition of Gastric Acid Secretion in the Conscious Dog. In kind it is in vivo, Harrier dog, either sex. Particulars: for ED50: Canis lupus familiaris, dog, acid output 2 h after dosing. How it is done:
(§1) The potency for inhibition of acid secretion has been measured in the male rat and the dog, both intravenously and intraduodenally. When it comes to relevance of the animal test data for potency of a given compound in man for the present type of compounds, it is believed that potency in man will correspond to a level somewhere between what is measured in the male rat and what is measured in the dog.
Inhibition of Gastric Acid Secretion and Bioavailability in the Conscious Dog.
Harrier dogs of either sex were used. They were equipped with a duodenal fistula for the administration of test compounds or vehicle and a cannulated ventricular fistula for the collection of gastric secretions.
Before secretory tests the animals were fasted for about 18 h but water was freely allowed. Gastric acid secretion was stimulated by a 4 h infusion of histamine dihydrochloride (12 ml/h) at a dose producing about 80% of the individual maximal secretory response, and gastric juice collected in consecutive 30-min fractions. Test substance or vehicle was given id or iv 1 h after starting the histamine infusion, in a volume of 0.5 ml/kg body weight. The acidity of the gastric juice samples were determined by titration to pH 7.0, and the acid output calculated. The acid output in the collection periods after administration of test substance or vehicle were expressed as fractional responses, setting the acid output in the fraction preceding administration to 1.0. Percentage inhibition was calculated from fractional responses elicited by test compound and vehicle. ED50 --values were obtained by graphical interpolation on log dose-response curves, or estimated from single-dose experiments under the assumption of the same slope of the dose-response curve for all test compounds. All results reported are based on acid output 2 h after dosing.

Data set [2] in a line: Chemical Stability in aqueous buffer solution at pH 7. The format is physicochemical. As to conditions: pH 7, 37° C., low concentration; for half-life: read-out: Chemical Stability at pH 7, half-life (t 1/2) (converted). How it is done: The chemical stability of various compounds of the invention has been followed kinetically at low concentration at 37° C. in aqueous buffer solution at different pH values. The results in Table 3 show the half life (t 1/2) at pH 7, that is the time period after which half the amount of the original compound remains unchanged.

Data set [3] can be described thus: Bioavailability in the Male Rat (AUC method). In kind it is in vivo, Sprague-Dawley. As to conditions: blood, 4 umol/kg, AUC id vs iv, 4 μmol/kg, read-out: Bioavailability measured by the AUL-method, F %, Rat. How it is done:
Bioavailability is assessed by calculating the quotient between the area under plasma concentration (AUC) curve following intraduodenal (id) administration and intravenous (iv) administration from the rat or the dog. Low, therapeutically relevant doses, were used. This method is scientifically recognized as valid for assessing bioavailability (see for instance: M. Rowland and T.N. Tozer, Clinical Pharmacokinetics, 2nd ed., Lea & Febiger, London 1989, p 42). Bioavailability in the Male Rat. Male adult rats of the Sprague-Dawley strain were used. One day, prior to the experiments, all rats were prepared by cannulation of the left carotid artery under anaesthesia. The rats used for the intravenous experiments, were also cannulated in the jugular vein. (Ref. V Popovic and P Popovic, J Appl Physiol 1960;15,727-728). The rats used for the intraduodenal experiments, were also cannulated in the upper part of the duodenum. The cannulas were exteriorized at the nape of the neck. […] The area under the blood concentration vs time curve, AUC, was determined by the linear trapezoidal rule and extrapolated to infinity by dividing the last determined blood concentration by the elimination rate constant in the terminal phase. The systemic bioavailability (F %) following intraduodenal administration was calculated as [formula]

In data set [4] the test system is gastric acid secretion (stimulated with pentagastrin and carbachol). The experiment in a line: Inhibition of Gastric Acid Secretion in the Conscious Male Rat. As to conditions: 2 h, acid secretion during second hour after administration. In kind it is in vivo, Sprague-Dawley. How it is done: (§2) Since the bioavailability model described above is time and labour intensive, and requires a large number of plasma analyses, also a rough screening model, based on relative potencies to inhibit acid secretion, has been used (see for instance: A. Goth, Medical Pharmacology, 7th ed., C. V. Mosby Company, Saint Louis 1974, p 19). Thus, the ratio (called "Bioavailability" in Table 3) between the ED50 at intravenous administration and the ED50 at intraduodenal administration was calculated.
as §1
(§3) Inhibition of Gastric Acid Secretion in the Conscious Male Rat.
(§4) Male rats of the Sprague-Dawley strain were used. They were equipped with cannulated fistulae in the stomach (lumen) and the upper part of the duodenum, for collection of gastric secretions and administration of test substances, respectively. A fourteen days recovery period after surgery was allowed before testing commenced.
(§5) Before secretory tests, the animals were deprived of food but not water for 20 h. The stomach was repeatedly washed through the gastric cannula, and 6 ml of Ringer-Glucose given s.c. Acid secretion was stimulated with a infusion during 3.5 h (1.2 ml/h, s.c.) of pentagastrin and carbachol (20 and 110 nmol/kg h, respectively), during which time gastric secretions were collected in 30-min fractions. Test substances or vehicle were given iv or id at 90 min after starting the stimulation, in a volume of 1 ml/kg. Gastric juice samples were titrated to pH 7.0 with NaOH, 0.1 mol/L, and acid output calculated as the product of titrant volume and concentration. Further calculations were based on group mean responses from 4-5 rats. The acid output during the periods after administration of test substances or vehicle were expressed as fractional responses, setting the acid output in the 30-min period preceding administration to 1.0. Percentage inhibition was calculated from the fractional responses elicited by test compound and vehicle. ED50 values were obtained from graphical interpolation on log dose-response curves, or estimated from single-dose experiments assuming a similar slope for all dose-response curves. An estimation of the bioavailability was obtained by calculating the ratio ED50 iv /ED50 id. The results reported are based on gastric acid secretion during the second hour after drug/vehicle administration.

Test in data set [5]: as above
The format is in vivo, Sprague-Dawley. Particulars: in vivo, ratio ED50 iv/ED50 id, read-out: "Bioavailability" measured by the Rough Screening Model, Rat ED50 iv/ED50 id (%). How it is done: as §2, §1, §3, §4, §5

The mark [6] stands for this setting: route id (intraduodenal), Ref. value: estimated from one dog (footnote 1), read-out: Inhibition of acid secretion, Dog ED50, id.
The mark [7] stands for this setting: route id (intraduodenal), read-out: Inhibition of acid secretion, Rat ED50, id.
The mark [8] stands for this setting: route iv, read-out: Inhibition of acid secretion, Rat ED50, iv.

As to `COc1ccnc(C[S+]([O-])c2nc3cc(Cl)ccc3[nH]2)c1OC` (centres unmarked) [Example 1, 5-chloro-2-[[(3,4-dimethoxy-2-pyridinyl)methyl]sulfinyl]-1H-benzimidazole], the ED50 in data set [1] (setting [6]) was 1.2 µmol/kg; in data set [1] (route iv, Example 1 value: only one dog (footnote 2), read-out: Inhibition of acid secretion, Dog ED50, iv), 1.75 µmol/kg; in data set [4] (setting [7]) it was 2.6 µmol/kg; in data set [4] (setting [8]), 1.3 µmol/kg. In addition, the “Chemical Stability at pH 7, half-life (t 1/2)” value in data set [2] is listed as 30 h. Also, in data set [2], the half-life is 30 h. In addition, the bioavailability was 97% in data set [3] and 50% in data set [5].

With `COc1ccnc(C[S+]([O-])c2nc3cc(F)ccc3[nH]2)c1OC` (centres unmarked) [Ref., 5-fluoro-2-[[(3,4-dimethoxy-2-pyridinyl)methyl]sulfinyl]-1H-benzimidazole], the ED50 is 1.1 µmol/kg in data set [1] (setting [6]), 1.75 µmol/kg in data set [4] (setting [7]) and 0.85 µmol/kg in data set [4] (setting [8]). In addition, the “effect on acid secretion at 1.0 μmol/kg” value in data set [1] (Dog 1, 1.0 μmol/kg, id) was “no effect”. Also, the “inhibition of acid secretion at 2.0 μmol/kg” value in data set [1] (Dog 2, 2.0 μmol/kg, id) was found to be 70%. Further, the “Chemical Stability at pH 7, half-life (t 1/2)” value in data set [2] is reported as 58 h. Moreover, the half-life in data set [2] was 58 h. The bioavailability turned out to be 47% in data set [3] and 49% in data set [5].
